The source of these data is publication PMC11623267, “Inhibitors of malaria parasite cyclic nucleotide phosphodiesterases block asexual blood-stage development and mosquito transmission” (Science Advances, 2024).

The test system of one assay is P. falciparum Dd2-B2. Kind of assay: 72-hour flow cytometry EC50 assay, Dd2-B2 parental line. In kind it is cell-based, Plasmodium falciparum. As to conditions: Plasmodium falciparum, DD2, read-out: EC50 Dd2-B2 parental line. On the procedure:
(§1) Stocks of SAL-0010003 (5-benzyl), SAL-0010355 (5-aryl), and SAL-0010419 (2-alkyl) were made at 10 and 1 mM in DMSO. Aliquots in use were stored at −20°C, and long-term storage was at −80°C. All in vitro studies were done such that the final DMSO concentration was <0.5%. P. falciparum ABS parasites were cultured at 3% hematocrit in human O+ RBCs in RPMI 1640 medium, supplemented with 25 mM Hepes, 50 mg L-hypoxanthine, 2 mM L-glutamine, 0.225% sodium bicarbonate, 0.5% (w/v) AlbuMAX II (Invitrogen) and gentamycin (10 μg/ml), in modular incubator chambers (Billups-Rothenberg) at 5% O2, 5% CO2, and 90% N2 at 37°C. Dd2-B2 (obtained from T. Wellems, National Institute of Allergy and Infectious Diseases, National Institutes of Health) is a genetically homogenous line that was cloned from Dd2 by limiting dilution. To define the EC50 and EC90 values of ABS parasites, Dd2-B2 ring-stage cultures at 0.2% parasitemia and 1% hematocrit were exposed for 72 hours to a range of 10 drug concentrations that were twofold serially diluted in duplicates along with drug-free controls. Parasite survival was assessed by flow cytometry on an iQue flow cytometer (Sartorius) using SYBR Green and MitoTracker Deep Red FM (Life Technologies) as nuclear stain and vital dyes, respectively. After determination of the EC50 and EC90 values for the three compounds with the P. falciparum Dd2-B2 clone, one single-step selection was set up using 2 × 10^5 parasites in each well of a 96-well plate at a starting concentration of 3× EC90. Parasites were cleared from the culture rapidly, and cultures were screened three times weekly by flow cytometry and counted as positive for recrudescence when the overall parasitemia reached 0.3% and the parasites were visible on a blood smear. DNA was extracted from recrudescent lines using a QIAGEN QIAamp Blood Mini Kit, and libraries were prepared with the Illumina DNA Prep kit for whole-genome sequencing on the Illumina MiSeq using a V3 2 × 300–base pair flow cell.
(A flow cytometer gives signals particle by particle.)

For assay [1], the system named is P. falciparum NF54-HGL stage V gametocytes fed to A. stephensi mosquitoes. In words: SMFA dose response (luminescence). The format is in vivo, Plasmodium falciparum. On the procedure:
Compounds were diluted in DMSO and then in culture medium (RPMI 1640 supplemented with 367 μM hypoxanthine, 25 mM Hepes, 25 mM sodium bicarbonate, and 10% human type A serum) to achieve a final DMSO concentration of 0.1%. Compounds were incubated with stage V gametocytes from the P. falciparum NF54-HGL reporter strain ([60]) for 48 hours at 37°C in Eppendorf tubes. Subsequently, parasites were pelleted by centrifugation (20 s at 20,000g) and resuspended in human type A serum containing diluted compound (final DMSO concentration of 0.1%) and human type O RBCs to achieve a hematocrit of 50%. This blood meal was then fed to 3- to 5-day-old A. stephensi mosquitoes [Sind-Kasur Nijmegen strain ([61])] for 10 min. Following feeding, unfed mosquitoes were removed, and mosquitoes were maintained at 26°C and 70 to 80% relative humidity. Eight days after feeding, oocyst intensity and prevalence were assessed by luminescence measurement of individual mosquitoes as described ([60]). All conditions were tested in duplicate, and for each replicate, a total of 24 mosquitoes were analyzed. IC50 values were estimated by fitting a four-parameter Hill model to the data using least squares to find the best fit. Controls included vehicle (0.1% DMSO) and 10 μM DHA.

In assay [2] the test system is P. falciparum Dd2-B2 lines selected under drug pressure. In words: 72-hour flow cytometry EC50 assay, lines selected under drug pressure. In kind it is cell-based, Plasmodium falciparum. As to conditions: for EC50: Plasmodium falciparum. How it is done: Three examples of an additional compound series developed independently [NPD-2958, NPD-3518 ([31]), and NPD-3738; fig.
as §1

Assay [3] relates to P. falciparum clinical isolates from Tororo and Busia Districts of Uganda. Kind of assay: Ex vivo 72-hour SYBR Green assay, Ugandan clinical isolates. In kind it is cell-based, Plasmodium falciparum. The note with it: 47 Ugandan isolates. The source says:
Clinical isolates were from the Tororo District of Uganda, located in the central-eastern part of the county near the Kenya border. Tororo and surrounding areas have high-intensity, year-round malaria transmission. […] Patients reporting use of antimalarial treatment within the previous 30 days or with evidence of an infection with other Plasmodium species were excluded. Informed consent was obtained from patients and/or primary care givers (depending on age); children aged 8 to 17 years provided assent. Two to 5 ml of blood was collected by venipuncture in a heparin tube. Samples were delivered to the adjacent IDRC laboratory at Tororo District Hospital or transported by car from Masafu Hospital on the day of collections for storage of blood spots on filter paper (for isolation of nucleic acids) and initiation of ex vivo culture of malaria parasites. Treatment involved a standard therapeutic regimen for uncomplicated falciparum malaria, which was a 3-day course of the artemisinin-based combination therapy (ACT), artemether-lumefantrine. In Uganda, at the time of sampling, there was widespread resistance to the antifolate drugs due to mutant pfdhfr/pfdhps alleles. […] Chloroquine was prepared at 10 mM in water. Stock solutions were stored at −20°C. Working solutions were freshly prepared from a single aliquot within 4 hours of the susceptibility test and stored at 4°C.
Samples were delivered to the adjacent IDRC laboratory at Tororo District Hospital or transported by car from Masafu Hospital on the day of collection for storage of blood spots on filter paper (for isolation of nucleic acids) and initiation of ex vivo culture of malaria parasites. […] Before assay, 10 mM antimalarial stock compounds were diluted as necessary in DMSO and stored at −20°C. […] Compounds were serially diluted threefold in a 96-well assay plate in complete medium to a final volume of 50 μl, in columns 1 to 10, with concentrations optimized to capture full dose-response curves. Column 11 contained compound-free controls, while column 12 contained uninfected human RBC controls. Parasite culture (150 μl) was added to columns 1 to 11 of the assay plate with a final volume of 200 μl per well, 0.2% parasitemia, and 2% hematocrit. […] Thawed plates were incubated with SYBR Green lysis buffer for 1 hour in the dark as previously reported ([62]). Fluorescence was quantified using a BMG Fluostar Optima plate reader at an excitation of 485 nm and an emission of 530 nm, and data were plotted using GraphPad Prism 7. The data were curve fit with a variable slope function to estimate IC50 values. For each isolate, a Z′ factor to assess assay quality was calculated from positive controls (eight drug-free wells) and negative controls (eight parasite-free, red cell control wells). Z′ values over 0.5 were considered good assays, but each curve was also examined by eye for suitability. Some assays with Z′ below 0.5 may be considered valid depending on factors such as the SE of the curve-fit IC50.

Where two headings read alike, the source gives them in different places.

Consider `CC(C)c1n[nH]c2c(=O)[nH]c(Cc3ccc(F)cc3F)nc12` [SAL-0010003], for which the concentration for a half-maximal effect (EC50) (as a rule, the concentration giving half of the maximal effect) with P. falciparum Dd2-B2 is 304 nM; in assay [2] (DD2, read-out: EC50, line selected with SAL-0010003, Well A7) it was 2800 nM; in assay [2] (DD2, read-out: EC50, line selected with SAL-0010003, Well E2), 2510 nM; in assay [2] (DD2, read-out: EC50, line selected with SAL-0010003, Well F10) it was 1620 nM. Besides, the concentration for half-maximal inhibition (IC50) (usually the midpoint of a concentration-inhibition curve) amounted to 116 nM in assay [1] (read-out: SMFA IC50 infection (transmission) prevalence, 48 hours incubation; oocysts 8 days after feeding); 116 nM in assay [1] (read-out: SMFA IC50 infection (transmission) prevalence; 48 hours incubation; oocysts 8 days after feeding); 67.3 nM in assay [1] (read-out: SMFA IC50 oocyst (transmission) intensity, 48 hours incubation; oocysts 8 days after feeding); 67 nM in assay [1] (read-out: SMFA IC50 oocyst (transmission) intensity; 48 hours incubation; oocysts 8 days after feeding). Besides, the “Mean fold change in EC50” value in assay [2] (selected lines vs Dd2-B2 parental line, ±SD) is 7.6 ± 2.0 fold. Also, the “EC50 shift, line selected with SAL-0010003, Well A7” value in assay [2] (vs Dd2-B2) worked out at 9.2 fold. In addition, the “EC50 shift, line selected with SAL-0010003, Well E2” value in assay [2] (vs Dd2-B2) was determined as 8.3 fold. Also, the “EC50 shift, line selected with SAL-0010003, Well F10” value in assay [2] (vs Dd2-B2) is 5.3 fold.

`CC(C)c1[nH]nc2c(=O)[nH]c(Cc3ccccc3F)nc12` [SAL-0010042]: the EC50 in assay [3] (read-out: EC50 clinical isolates, Gmean (geometric mean)) stood at 204 nM; in assay [3] (read-out: EC50 clinical isolates, Median), 197 nM.
